Assay results: PMC10287566, “Signaling-specific inhibition of the CB1 receptor for cannabis use disorder: phase 1 and phase 2a randomized trials” (Nature Medicine, 2023)
Read-outs that look alike come from different tables or passages of the source.

Assays:
[1] = molecular target: T1, hCB1 point mutant p.E1.49G (Homo sapiens, UniProt P21554, E133G); assay: THC-induced decrease in cellular respiration, HEK293 cells with mutant hCB1; format: cell-based; conditions: HEK293, hCB1 p.E1.49G, THC 1 µM
T1 construct: expressed in transfected cells; host or cells: HEK293
T1 sequence (P21554 whole entry E133G): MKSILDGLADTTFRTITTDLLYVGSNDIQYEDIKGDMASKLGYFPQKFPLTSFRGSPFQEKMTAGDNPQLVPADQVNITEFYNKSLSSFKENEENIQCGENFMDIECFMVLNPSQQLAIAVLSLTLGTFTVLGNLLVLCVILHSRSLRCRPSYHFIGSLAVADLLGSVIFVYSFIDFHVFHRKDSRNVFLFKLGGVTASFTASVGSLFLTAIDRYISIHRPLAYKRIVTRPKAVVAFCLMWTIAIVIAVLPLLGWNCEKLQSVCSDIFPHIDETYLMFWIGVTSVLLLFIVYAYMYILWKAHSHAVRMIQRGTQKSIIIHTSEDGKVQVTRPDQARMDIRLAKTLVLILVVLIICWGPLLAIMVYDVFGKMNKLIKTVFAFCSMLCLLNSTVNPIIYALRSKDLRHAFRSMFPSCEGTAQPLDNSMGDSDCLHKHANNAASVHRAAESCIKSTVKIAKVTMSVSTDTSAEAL
Procedure: After 15 min of incubation, THC (1 µM, dissolved in ethanol 0.0034%) or vehicle was added in the culture dishes for 30 min.
Cellular respiration was measured in a calibrated oxygraph (Oxygraph-2k, Oroboros Instruments) equipped with a Clark electrode and DatLab software. Oxygen consumption (OC) rate was used to measure cellular respiration.

mice [2] = assay: Anxiety-related behavior, elevated plus maze, repeated treatment; format: in vivo; conditions: mice, elevated plus maze, highest dose tested 15 mg/kg
Description: Anxiety-like behaviors were studied in the elevated plus maze (EPM), a rodent model used to evaluate the putative anxiogenic or anxiolytic effects of pharmacological compounds. Depression-related behaviors were studied using the sucrose preference test as a model of anhedonia, one of the cardinal symptoms of depression.
The EPM apparatus comprises four elevated arms arranged in a cross-like shape, with the two opposite arms enclosed by walls and the other two arms open. For all experiments, mice were placed in the center of the EPM and were free to explore the maze for 5 min after receiving the treatment. The time spent and the number of entries into the open and closed arms were measured by an automatic video tracking system (EthoVision XT version 12, Noldus Information Technology). A decrease in the percentage of visits and/or the time spent in open arms is considered an index of increased anxiety.
The EPM assessment was done on day 26, and the sucrose preference test was done on day 28.

mice [3] = assay: THC-induced catalepsy (bar test); format: in vivo
[4] = Plasma and brain pharmacokinetics/toxicokinetics in rats; format: in vivo; conditions: for AUC(0-t) / Cmax / half-life / Tmax: rat, plasma; for AUC(0-t) / Cmax / half-life: po
Procedure: Blood samples were obtained from catheterized animals housed in Culex cages with an automated blood sampler—a robotic system designed to facilitate the sampling of whole blood from awake and freely moving rodents. At the last withdrawal timepoint (48 h after dosing), blood aliquots were manually collected from the femoral catheter. This experiment was performed by the CRO Oncodesign.
Blood was withdrawn by cardiac puncture, and the brains were harvested.
In both experiments, blood samples were centrifuged ~7 min at 1,600g (4 °C), and the plasma was collected. The brain was weighed and frozen on dry ice. Plasma and brain were stored below −70 °C until analysis.
For all studies in rats and the 91-d toxicity study in dogs, the timepoints on days 1, 28 and 91 were: before dose and 1, 3, 5, 8 and 24 h after dose. For the 28-d toxicity study in dogs, the timepoints on days 1 and 28 were: before dose and 1, 2, 4, 8, and 24 h after dose. In both species, only mean pre-dose plasma concentrations were calculated on day 14 for the 28-d study and on day 28 for the 91-d study. For the experiments in rats, blood samples for drug analysis were taken from the satellite animals used for the toxicokinetic (TK) analysis (n = 3 per sex per timepoint and per group). For experiments performed in dogs, blood samples were drawn from the cephalic or jugular veins of all animals (n = 3 per sex per group).
TK analysis was performed separately per sex on mean concentrations by a non-compartmental analysis (NCA). The linearity of exposure was evaluated by comparison of the AUC/dose and Cmax/dose ratios. Possible accumulation was evaluated from the ratio of AUC on day 28 and on day 1 for each dose level and each sex. Samples lower than the limit of quantification (LLQ) values (that is, < 8.00 ng ml^−1 in rats and <20.0 ng ml^−1 in dogs) were not included in the calculation of TK parameters.

mice [5] = assay: Glucocorticoid (corticosterone) secretion in mice; format: in vivo; conditions: mice, highest dose tested 10 mg/kg
Procedure: Blood sampling was performed 2, 5, 8 and 24 h after dosing (n = 3 per sex per dose per sampling time). For blood sampling, mice were anaesthetized under isoflurane, and blood was collected by cardiac puncture. Blood was centrifuged, and plasma was taken and frozen at −80 °C until quantifications of corticosterone by GC–MS/MS.

mice [6] = assay: THC-induced impairment of reality testing; format: in vivo
CD-1 Swiss male mice = assay: i.v. self-administration of WIN55,212-2 in mice; format: in vivo
Procedure: Before the start of the self-administration sessions, mice were implanted under anesthesia with catheters into the right jugular vein. […] Mice were trained under a fixed ratio 1 (FR1) schedule of reinforcement.
Two-hour daily self-administration sessions were conducted 6 d per week for 18 d. Mice received corn oil vehicle (2 ml kg^–1) orally on days 9 and 10 to be habituated to the oral gavage procedure.

mice [7] = assay: THC-induced impairment of pre-pulse inhibition; format: in vivo
mice [8] = assay: THC-induced increase in psychomotor stimulation (open field); format: in vivo
[9] = molecular target: GR (glucocorticoid receptor) (Homo sapiens, UniProt P04150); assay: Eurofins binding screen; conditions: read-out: Percent inhibition of control specific binding
Sequence of GR (glucocorticoid receptor) (P04150 whole entry): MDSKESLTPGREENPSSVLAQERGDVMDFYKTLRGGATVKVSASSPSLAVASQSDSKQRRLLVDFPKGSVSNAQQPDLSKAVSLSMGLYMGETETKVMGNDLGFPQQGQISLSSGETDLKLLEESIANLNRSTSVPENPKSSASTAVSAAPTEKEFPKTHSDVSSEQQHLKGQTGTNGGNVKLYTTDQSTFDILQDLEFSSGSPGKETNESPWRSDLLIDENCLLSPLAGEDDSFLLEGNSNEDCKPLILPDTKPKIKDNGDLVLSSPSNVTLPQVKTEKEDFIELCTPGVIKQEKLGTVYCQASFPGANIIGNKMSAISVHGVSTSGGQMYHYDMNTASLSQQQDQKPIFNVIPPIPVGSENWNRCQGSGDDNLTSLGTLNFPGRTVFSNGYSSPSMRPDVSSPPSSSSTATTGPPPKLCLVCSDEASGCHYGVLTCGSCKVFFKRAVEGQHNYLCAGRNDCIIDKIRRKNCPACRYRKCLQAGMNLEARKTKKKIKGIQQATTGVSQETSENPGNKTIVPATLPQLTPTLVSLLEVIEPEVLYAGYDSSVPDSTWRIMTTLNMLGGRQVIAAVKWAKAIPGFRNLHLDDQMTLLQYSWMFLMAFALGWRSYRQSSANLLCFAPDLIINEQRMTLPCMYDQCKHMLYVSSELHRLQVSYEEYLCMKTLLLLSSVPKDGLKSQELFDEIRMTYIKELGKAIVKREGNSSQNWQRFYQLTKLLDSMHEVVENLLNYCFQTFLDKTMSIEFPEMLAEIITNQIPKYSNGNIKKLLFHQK

healthy volunteers = format: in vivo, human; conditions: SAD
Procedure: Participants were admitted to the research clinic at midday before dosing (day −1). In the SAD study, they remained in-house until day 8 for PK and PD samples and safety assessments. In the MAD study, participants remained in-house until day 14 and returned to the research facility on an outpatient basis to have PK and safety assessments at 216 h and 264 h (day 16 and day 18) after their last dose (day 7). Safety monitoring (physical examinations, vital sign measurements, 12-lead ECGs, clinical safety laboratory tests and AE monitoring) were performed throughout the studies. Psychometrics tests (Bond & Lader VAS, Addiction Research Center Inventory (49-item short form) (ARCI-49) and Profile of Mood States 65 self-report items (POMS-65)) and the Columbia-Suicide Severity Rating Scale (C-SSRS) test were performed at baseline, before dose and at 4 h and 24 h after dose on day 1 and day 7 (MAD study, only) and C-SSRS only at 24 h.

rats = assay: THC-induced dopamine release in nucleus accumbens (microdialysis); format: in vivo; conditions: 15 µg kg^−1 oral
[10] = Sprague Dawley, 1.6 mg/kg, rats po 1.6 mg/kg single
[11] = both sexes, Sprague Dawley SPF, 20 mg/kg, rats po 20 mg/kg single, 91-day tox study
[12] = both sexes, Sprague Dawley SPF, 36 mg/kg, rats po 36 mg/kg single, 28-day tox study
[13] = both sexes, Sprague Dawley SPF, 65 mg/kg, rats po 65 mg/kg single, 91-day tox study
[14] = both sexes, Sprague Dawley, 2 mg/kg, rats po 2 mg/kg single, 28-day tox study
[15] = both sexes, Sprague Dawley, 2 mg/kg, rats po 2 mg/kg single, 91-day tox study
[16] = Self-administration of WIN 55,212-2, mice
[17] = Impairment of pre-pulse inhibition
[18] = Increase in psychomotor stimulation

Q: With COc1ccc(CO[C@H]2CC[C@@]3(C)C(=CC[C@H]4[C@@H]5CC[C@H](C(C)=O)[C@@]5(C)CC[C@@H]43)C2)cc1 [AEF0117, 3β-(4-methoxybenzyloxy)pregn-5-en-20-one] as the compound, how does the “effect on cellular respiration with mutant hCB1” value [1] read?
A: loss of effect

Q: And the “Overall effect: increase in anxiety-related behaviors” value (mice [2])?
A: No

Q: What about the THC-induced catalepsy (mice [3]) of the same compound?
A: inhibited

Q: And the “% Inhibition” value (mice [3]; Catalepsy)?
A: 50%

Q: What about the ID50 (mice [3]; Catalepsy) of the same compound?
A: 5 µg/kg

Q: And the ID100 (mice [3]; Catalepsy)?
A: 50 µg/kg

Q: And the AUC(0-t) [4, 10]?
A: 1060 ng·h/mL

Q: What about the Cmax [4, 10] of the same compound?
A: 116 ng/mL

Q: What about the half-life ([4]; Sprague Dawley, 1.6 mg/kg, rats po 1.6 mg/kg single, read-out: t½ (converted)) of the same compound?
A: 13.9 h

Q: What about the half-life ([4]; Sprague Dawley, rats per os, read-out: half-life) of the same compound?
A: 7.3 to 15.8 h

Q: What about the Tmax ([4]; Sprague Dawley, rats po 1.6 mg/kg single) of the same compound?
A: 4.1 h

Q: And the Tmax ([4]; Sprague Dawley, rats, oral, corn oil)?
A: 3 h

Q: And the AUC(0-t) ([4]; both sexes, Sprague Dawley SPF, 9 mg/kg, rats po 9 mg/kg single, 28-day tox study)?
A: 6150 ng·h/mL

Q: And the half-life ([4]; both sexes, Sprague Dawley SPF, 9 mg/kg, rats po 9 mg/kg single, 28-day tox study, read-out: t½ (converted))?
A: 11.7 h

Q: And the AUC(0-t) [4, 11]?
A: 12700 ng·h/mL

Q: What about the Cmax [4, 11] of the same compound?
A: 1060 ng/mL

Q: What about the half-life ([4]; both sexes, Sprague Dawley SPF, 20 mg/kg, rats po 20 mg/kg single, 91-day tox study, read-out: t½ (converted)) of the same compound?
A: 7.6 h

Q: What about the AUC(0-t) [4, 12] of the same compound?
A: 16500 ng·h/mL

Q: And the Cmax [4, 12]?
A: 2060 ng/mL

Q: What about the half-life ([4]; both sexes, Sprague Dawley SPF, 36 mg/kg, rats po 36 mg/kg single, 28-day tox study, read-out: t½ (converted)) of the same compound?
A: 9.8 h

Q: What about the AUC(0-t) [4, 13] of the same compound?
A: 18200 ng·h/mL

Q: And the Cmax [4, 13]?
A: 1660 ng/mL

Q: What about the half-life ([4]; both sexes, Sprague Dawley SPF, 65 mg/kg, rats po 65 mg/kg single, 91-day tox study, read-out: t½ (converted)) of the same compound?
A: 10.4 h

Q: And the Tmax ([4]; both sexes, Sprague Dawley SPF, rats po 9 mg/kg single, 28-day tox study)?
A: 3 h

Q: And the Tmax ([4]; both sexes, Sprague Dawley SPF, rats po 20 mg/kg single, 91-day tox study)?
A: 3 h

Q: What about the Tmax ([4]; both sexes, Sprague Dawley SPF, rats po 36 mg/kg single, 28-day tox study) of the same compound?
A: 3 h

Q: And the Tmax ([4]; both sexes, Sprague Dawley SPF, rats po 65 mg/kg single, 91-day tox study)?
A: 3 h

Q: What about the AUC(0-t) [4, 14] of the same compound?
A: 1450 ng·h/mL

Q: What about the Cmax [4, 14] of the same compound?
A: 106 ng/mL

Q: And the half-life ([4]; both sexes, Sprague Dawley, 2 mg/kg, rats po 2 mg/kg single, 28-day tox study, read-out: t½ (converted))?
A: 8 h

Q: And the AUC(0-t) [4, 15]?
A: 1210 ng·h/mL

Q: What about the Cmax [4, 15] of the same compound?
A: 86.3 ng/mL

Q: What about the half-life ([4]; both sexes, Sprague Dawley, 2 mg/kg, rats po 2 mg/kg single, 91-day tox study, read-out: t½ (converted)) of the same compound?
A: 7.7 h

Q: And the Cmax ([4]; both sexes, Sprague Dawley, 9 mg/kg, rats po 9 mg/kg single, 28-day tox study)?
A: 578 ng/mL

Q: What about the Tmax ([4]; both sexes, Sprague Dawley, rats po 2 mg/kg single, 28-day tox study) of the same compound?
A: 4 h

Q: What about the “time to steady state” value ([4]; rats and dogs, repeated administration) of the same compound?
A: approximately 14 days

Q: What about the “Overall effect: increase in glucocorticoid secretion” value (mice [5]) of the same compound?
A: No

Q: And the “THC impairment in reality testing” value (mice [6])?
A: inhibited

Q: And the “% Inhibition” value (mice [6]; Impairment of reality testing)?
A: 100%

Q: And the ID100 (mice [6]; Impairment of reality testing)?
A: ≤ 15 µg/kg

Q: And the “% Inhibition” value (CD-1 Swiss male mice; [16])?
A: 80%

Q: What about the ID50 (CD-1 Swiss male mice; [16]) of the same compound?
A: 5 µg/kg

Q: What about the ID100 (CD-1 Swiss male mice; [16]) of the same compound?
A: 15 µg/kg

Q: And the “i.v. self-administration of WIN55,212-2” value (CD-1 Swiss male mice; mice, 15 µg kg^−1 oral)?
A: significantly reduced

Q: What about the “THC impairment in sensory motor gating (PPI)” value (mice [7]) of the same compound?
A: inhibited

Q: What about the “% Inhibition” value (mice [7]; [17]) of the same compound?
A: 100%

Q: And the ID50 (mice [7]; [17])?
A: 4.5 µg/kg

Q: And the ID100 (mice [7]; [17])?
A: 15 µg/kg

Q: What about the THC-increased psychomotor stimulation (mice [8]) of the same compound?
A: inhibited

Q: And the “% Inhibition” value (mice [8]; [18])?
A: 100%

Q: And the ID50 (mice [8]; [18])?
A: 0.36 µg/kg

Q: What about the ID100 (mice [8]; [18]) of the same compound?
A: 1.5 µg/kg

Q: What about the inhibition at 10 µM [9] of the same compound?
A: 22%

Q: And the “ARCI 49 sub-scores” value (healthy volunteers; 0.2-6 mg vs placebo)?
A: No relevant trend

Q: What about the “Bond and Lader VAS (alertness, contentedness, calmness)” value (healthy volunteers; 0.2-6 mg vs placebo) of the same compound?
A: No clinically relevant differences

Q: What about the “POMS 65 sub-scales” value (healthy volunteers; 0.2-6 mg vs placebo) of the same compound?
A: No relevant trend

Q: And the “C-SSRS: number of subjects with suicidal ideation or behavior” value (healthy volunteers; all doses 0.2-6 mg, Day 1 and Day 2)?
A: 0 n (%)

Q: And the “THC-induced increase in Nac extracellular dopamine” value (rats)?
A: inhibited
